Data reported in patent US4206207A, “Use of 4-carboxy-phthalato(1,2-diaminocyclohexane)-platinum (II) and alkali metal salts thereof with cyclophosphamide in alleviating L1210 murine leukemia” (priority 1978, dated 1980).
Where “and” joins values, the source holds several entries; their conditions need not be identical. Equal entries are not always repeated.

Columns and labels:
Lethality (LD50) in mice = settings: mouse, in vivo
Colon #38 = test: Mouse tumor panel: Colon #38 (sc, tumor weight inhibition); format: in vivo; settings: D2,9
Experimental: (§1) NSC-271674 Against a Panel of a Mouse Tumors
(§2) **Tumor weight inhibition assay.
(§3) Data are expressed as a percentage of the survival time in days or the
(§4) tumor weights in mg of the treated mice divided by the corresponding
(§5) values for the control mice. All testing was performed using both platinu
(§6) compounds in the same experiment. The criteria for activity are as
(§7) follows: confirmed activity (activity from two separate laboratories) of
(§8) % T/C of 150 or more for survival systems and 10% or less for tumor weigh
(§9) inhibition assays. Lower levels of activity such as a % T/C of 125 for
(§10) survival systems and 42% for tumor weight inhibition assays are considere
(§11) statistically significant.

L1210 leukemia [1] = test: L1210 leukemia in mice, treatment delayed until Day 3, singly and in combination; format: in vivo, BDF1 mice; settings: Day 3 treatment
Experimental: The compound in 1% NaHCO3 solution was tested against the L1210 leukemia in BDF1 mice [10^6 cells given to mice on Day 0, treatment (ip) on Day 1 only] in laboratory and the following % increases in life span (%ILS) were noted:
When treatment was delayed until Day 3, 5 mg/kg gave 51% ILS, 42% ILS and 39% ILS in three experiments.

[2] = Renal Toxicity Screening Protocol, toxicity compared to NSC-119875; format: in vivo; settings: for Body Weight Loss score / Clinical Chemistry - Blood Urea Nitrogen score / Clinical Chemistry - Creatinine score / Clinical Chemistry - Serum Glutamic Pyruvic Transaminase score / Hematology - Hematocrit score / Hematology - White Blood Cell score / Histopathology - Gastrointestinal score / Histopathology - Hematopoietic score / Histopathology - Lymphatic score / Histopathology - Renal score: relative to NSC-119875; for TOTAL SCORE: sum of the ten scores
B16 melanoma = test: Mouse tumor panel: B16 melanoma (ip, survival time); format: in vivo; settings: D1-9
Experimental: as §1
(§12) *Survival time (mean or median) assay
as §3, §4, §5, §6, §7, §8, §9, §10, §11

L1210 leukemia [3] = test: L1210 leukemia in BDF1 mice, ip treatment on Day 1 only; format: in vivo; settings: for % increase in life span (% ILS): in 1% NaHCO3
Experimental: The compound in 1% NaHCO3 solution was tested against the L1210 leukemia in BDF1 mice [10^6 cells given to mice on Day 0, treatment (ip) on Day 1 only] in laboratory and the following % increases in life span (%ILS) were noted: […]

[4] = tested on: strains of murine leukemia; test: Activity against strains of murine leukemia resistant to NSC 119875 (general statement); settings: mouse, in vivo
L1210 [5] = test: In vitro growth inhibition of L1210 cells; format: cell-based, murine
Source text: (§13) The ID50 refers to the concentration of test compound required to
(§14) inhibit the growth of either the L1210 or L1210/DDP (NSC119875) resistant

Lewis lung = test: Mouse tumor panel: Lewis lung (iv, survival time); format: in vivo; settings: D1-9
Experimental: as §1, §12, §3, §4, §5, §6, §7, §8, §9, §10, §11

L1210 leukemia [6] = test: Second screener against L1210 leukemia, day 1, 5, 9 schedule; format: in vivo, murine
Source text: The compound was submitted to the Drug Development Branch of the National Cancer Institute and assigned NSC Number 271674. It was screened against the L1210 leukemia on a day 1, 5, 9 schedule and the following results were obtained:

CD8F1 mammary = test: Mouse tumor panel: CD8F1 mammary (sc, tumor weight inhibition); format: in vivo; settings: Q7DX5
Experimental: as §1, §2, §3, §4, §5, §6, §7, §8, §9, §10, §11

murine leukemia L1210 = test: Antileukemic activity in mice against murine leukemia L1210 (general statement); format: in vivo
Source text: Some previous platinum chelate compounds show dosage limitation due to renal impairment but the free carboxyl of the present composition offers a possible route of oral […] and absorption by the stomach.

P388/DDP = test: In vivo activity against P388/DDP leukemia with acquired resistance to NSC-119875; settings: Days 1,5,9,13, NSC-119875 6.7 mg/kg, NSC-271674 20.0 mg/kg
Source text: P388/DDP refers to a tumor line with acquired resistance to NSC119875.
(§15) Data are expressed as survival in days and as a percentage increase in […]

P388 leukemia = test: In vivo activity against P388 leukemia; settings: Days 1,5,9,13, NSC-119875 6.7 mg/kg, NSC-271674 20.0 mg/kg
Source text: as §15

L1210 [7] = test: Mouse tumor panel: L1210 (ip, survival time); format: in vivo; settings: D1-9
Experimental: as §1, §12, §3, §4, §5, §6, §7, §8, §9, §10, §11

L1210 leukemia [8] = test: NCI screen against L1210 leukemia, day 1, 5, 9 schedule; format: in vivo, murine
Source text: The compound was submitted to the Drug Development Branch of the National Cancer Institute and assigned NSC Number 271674. It was screened against the L1210 leukemia on a day 1, 5, 9 schedule and the following results were obtained: […]

L1210/DDP = test: In vitro growth inhibition of L1210/DDP (NSC-119875 resistant) cells; format: cell-based, murine
Source text: as §13, §14

[9] = 5 mg/kg + cyclophosphamide 50 mg/kg + 5-fluorouracil 75 mg/kg
[10] = 5 mg/kg + cyclophosphamide 50 mg/kg, two experiments

SMILES: N[C@@H]1CCCC[C@H]1N.O=C([O-])c1ccc(C(=O)[O-])c(C(=O)[O-])c1.[H+].[Pt+2] [NSC-271674, 4-Carboxyphthalato(1,2-diaminocyclohexane)platinum(II)]
- approximate LD50 (Lethality (LD50) in mice): ~75 mg/kg
- % T/C (tumor weight) at optimal dose (Colon #38; Colon #38 first line, optimal dose NSC-119875 8, NSC-271674 12.5 mg/kg/inj): 50%
- % T/C (tumor weight) at optimal dose (Colon #38; Colon #38 second line, optimal dose NSC-119875 16, NSC-271674 50 mg/kg/inj): 33%
- % ILS (L1210 leukemia [1]; [9]): 673%
- >60 day survivors (L1210 leukemia [1]; [9]): 8 of 10
- % ILS (L1210 leukemia [1]; [10]): 416% and 217%
- >60 day survivors (L1210 leukemia [1]; [10]): 3 of 10 and no
- % ILS (L1210 leukemia [1]; 5 mg/kg alone, three experiments): 51% and 42% and 39%
- renal toxicity (in words) ([2]; against NSC 119875): superior results in testing for renal toxicity
- Body Weight Loss score [2]: 3
- Clinical Chemistry - Blood Urea Nitrogen score [2]: 1
- Clinical Chemistry - Creatinine score [2]: 1
- Clinical Chemistry - Serum Glutamic Pyruvic Transaminase score [2]: 3
- Hematology - Hematocrit score [2]: 3
- Hematology - White Blood Cell score [2]: 3
- Histopathology - Gastrointestinal score [2]: 1
- Histopathology - Hematopoietic score [2]: 5
- Histopathology - Lymphatic score [2]: 1
- Histopathology - Renal score [2]: 2
- TOTAL SCORE [2]: 23
- % T/C (survival time) at optimal dose (B16 melanoma; B16 first line, optimal dose NSC-119875 2, NSC-271674 6.25 mg/kg/inj): 171%
- % T/C (survival time) at optimal dose (B16 melanoma; B16 second line, optimal dose NSC-119875 1, NSC-271674 1.56 mg/kg/inj): 159%
- % increase in life span (% ILS) (L1210 leukemia [3]; 5 mg/kg ip): 70%
- % increase in life span (% ILS) (L1210 leukemia [3]; 10 mg/kg ip): 118%
- % increase in life span (% ILS) (L1210 leukemia [3]; 20 mg/kg ip): 119%
- % increase in life span (% ILS) (L1210 leukemia [3]; 25 mg/kg ip): 139%
- % increase in life span (% ILS) (L1210 leukemia [3]; 40 mg/kg ip): 232%
- mice survived > 60 days (L1210 leukemia [3]; 50 mg/kg ip): 1 of 8
- % increase in life span (% ILS) (L1210 leukemia [3]; 50 mg/kg ip): 288%
- mice survived > 60 days (L1210 leukemia [3]; 60 mg/kg ip): 1 of 8
- % increase in life span (% ILS) (L1210 leukemia [3]; 60 mg/kg ip): 174%
- activity against NSC 119875-exhausted strains (in words) [4]: appears to be active
- ID50 (concentration required to inhibit the growth of cells by 50 percent) (L1210 [5]): 0.30 µg/mL
- % T/C (survival time) at optimal dose (Lewis lung; Lewis lung first line, optimal dose NSC-119875 2, NSC-271674 3.12 mg/kg/inj): 122%
- % T/C (survival time) at optimal dose (Lewis lung; Lewis lung second line, optimal dose NSC-119875 2, NSC-271674 6.25 mg/kg/inj): 127%
- % ILS (L1210 leukemia [6]; 0.78 mg/kg): 19%
- % ILS (L1210 leukemia [6]; 1.56 mg/kg): 19%
- % ILS (L1210 leukemia [6]; 3.13 mg/kg): 41%
- % ILS (L1210 leukemia [6]; 6.25 mg/kg): 58%
- questionably toxic deaths (L1210 leukemia [6]; 6.25 mg/kg): 2 deaths
- % ILS (L1210 leukemia [6]; 12.5 mg/kg): 147%
- % ILS (L1210 leukemia [6]; 25 mg/kg): 86%
- cures (L1210 leukemia [6]; all doses): No cures
- % T/C (tumor weight) at optimal dose (CD8F1 mammary; CD8F1 first line, optimal dose NSC-119875 8, NSC-271674 6.25 mg/kg/inj): 11%
- % T/C (tumor weight) at optimal dose (CD8F1 mammary; CD8F1 second line, optimal dose NSC-119875 8, NSC-271674 25 mg/kg/inj): 25%
- effect of combination with cyclophosphamide (in words) (murine leukemia L1210; cyclophosphamide 50 mg/kg, optionally 5-FU 75 mg/kg or HU 1000 mg/kg): potentiated
- antileukemic activity (in words) (murine leukemia L1210; mice): antileukemic activity
- effective dosage (murine leukemia L1210; mice): 5-60 mg/kg of body weight
- % ILS (P388/DDP): 201%
- Survival (P388/DDP): 33.3 days
- % ILS (P388 leukemia): 56%
- Survival (P388 leukemia): 20.7 days
- % T/C (survival time) at optimal dose (L1210 [7]; L1210 first line, optimal dose NSC-119875 2, NSC-271674 0.78 mg/kg/inj): 174%
- % T/C (survival time) at optimal dose (L1210 [7]; L1210 second line, optimal dose NSC-119875 2, NSC-271674 1.56 mg/kg/inj): 325%
- % ILS (L1210 leukemia [8]; 0.78 mg/kg): 27%
- Cures (of 10) (L1210 leukemia [8]; 0.78 mg/kg): 0 of 10
- % ILS (L1210 leukemia [8]; 1.56 mg/kg): 33%
- Cures (of 10) (L1210 leukemia [8]; 1.56 mg/kg): 0 of 10
- % ILS (L1210 leukemia [8]; 3.13 mg/kg): 46%
- Cures (of 10) (L1210 leukemia [8]; 3.13 mg/kg): 0 of 10
- % ILS (L1210 leukemia [8]; 6.25 mg/kg): 163%
- Cures (of 10) (L1210 leukemia [8]; 6.25 mg/kg): 1 of 10
- % ILS (L1210 leukemia [8]; 12.5 mg/kg): 191%
- Cures (of 10) (L1210 leukemia [8]; 12.5 mg/kg): 2 of 10
- % ILS (L1210 leukemia [8]; 25 mg/kg): 344%
- Cures (of 10) (L1210 leukemia [8]; 25 mg/kg): 5 of 10
- ID50 (concentration required to inhibit the growth of cells by 50 percent) (L1210/DDP): 0.23 µg/mL

SMILES: CC(C)N.CC(C)N.[Cl-].[Cl-].[OH-].[OH-].[Pt] [NSC-256927, bisisopropylamine-cis-dichloro-transdihydroxy]
- Body Weight Loss score [2]: 2
- Clinical Chemistry - Blood Urea Nitrogen score [2]: 1
- Clinical Chemistry - Creatinine score [2]: 1
- Clinical Chemistry - Serum Glutamic Pyruvic Transaminase score [2]: 3
- Hematology - Hematocrit score [2]: 4
- Hematology - White Blood Cell score [2]: 3
- Histopathology - Gastrointestinal score [2]: 1
- Histopathology - Hematopoietic score [2]: 4
- Histopathology - Lymphatic score [2]: 4
- Histopathology - Renal score [2]: 2
- TOTAL SCORE [2]: 25
